Source: PubChem BioAssay (NCI)
Several values for one entry are separate records, joined by “and”; a condition that tells them apart may be missing. Equal entries are not always repeated.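 In this assay, cells in 96-well plates receive the compound at five concentrations for 48 hours. Endpoints are linearly interpolated between the surrounding concentrations. GI50 is the concentration that inhibits growth by half. TGI is the concentration that stops growth completely.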

Experiments:
Assay in all cases: growth of human tumour cells (NCI), 48 h
OVCAR-3 ovarian = tested on: OVCAR-3 ovarian
SW-620 colon = tested on: SW-620 colon
MDA-N = tested on: MDA-N
SK-MEL-2 melanoma = tested on: SK-MEL-2 melanoma
UACC-257 melanoma = tested on: UACC-257 melanoma
SK-MEL-28 melanoma = tested on: SK-MEL-28 melanoma
A549 NSCLC = tested on: A549 NSCLC
PC-3 prostate = tested on: PC-3 prostate
K-562 leukemia = tested on: K-562 leukemia
NCI/ADR-RES ovarian = tested on: NCI/ADR-RES ovarian
HL-60(TB) leukemia = tested on: HL-60(TB) leukemia

Compound	TGI (OVCAR-3 ovarian) [µM]	TGI (SW-620 colon) [µM]	TGI (MDA-N) [µM]	TGI (SK-MEL-2 melanoma)	TGI (UACC-257 melanoma) [µM]	TGI (SK-MEL-28 melanoma) [µM]	TGI (A549 NSCLC) [µM]	TGI (PC-3 prostate) [µM]	TGI (K-562 leukemia) [µM]	TGI (NCI/ADR-RES ovarian) [µM]	TGI (HL-60(TB) leukemia) [µM]	GI50 (SW-620 colon) [nM]	GI50 (A549 NSCLC) [nM]	GI50 (K-562 leukemia) [nM]	GI50 (OVCAR-3 ovarian) [µM]
CCN(CC(=O)O)C(=O)c1cccnc1	> 100	> 100	> 100	> 100 µM	> 100	> 100	> 100	> 100	> 100	> 100	–	–	–	–	–
COc1cc2c(ccc3c4cc(OC)c(OC)cc4c[n+](C)c23)cc1O	54.3	> 47.3	–	> 71.5 µM	> 75	> 75	> 75	–	> 75	> 75	> 75	–	–	–	–
CCOC(=O)C(NC(=O)c1ccco1)(Nc1nc2ccc(OCC)cc2s1)C(F)(F)F (stereo not given)	> 100	> 100	60	> 100 µM	76.1	> 100	> 100	93	> 100	> 100	> 100	–	–	–	–
CCOC(=O)C1=NN(c2ccc(C)cc2)C2=CC(C)=NN(C)C(=S)N21	> 100	> 100	> 100	> 100 µM	> 100	> 100	> 100	> 100	> 100	> 100	> 100	–	–	–	–
COc1ccc2c(c1)[nH]c1c(/C=C/c3ccccc3)nccc12	36.9	91.9	37.2	33.2 µM	31.1	31.9	37.2	38.9	> 100	37.9	54	–	–	–	–
CCn1c(-c2ccc(N=NNc3ccc(-c4n[nH]c(=S)n4CC)cc3)cc2)n[nH]c1=S	5.61	> 100	> 100	4.45 µM	> 100	> 100	> 100	8.34	> 100	> 100	–	–	–	–	–
[N-]=[N+]=CC(=O)c1ccccc1C#CCCc1ccccc1	61.5	> 100	–	79.7 µM	94.7	> 100	> 100	–	> 100	–	32.9	–	–	–	–
CCCCCCCCC/C=C/C=C/C(=O)NCC(=O)NC1C(O)C(O)C(Nc2ncnc3nc[nH]c23)OC1C(O)CO (stereo not given)	0.0436	0.112	1.21	0.057 µM and 0.136 µM	0.207	3.25	–	0.00787	> 100	–	–	2.84	6.08	360	–
NC(=O)c1c(NC(=O)c2ccccn2)sc2c1CCC(=O)C2	45.7	> 100	–	–	–	–	> 100	> 100	> 100	–	–	882	> 100000	1540	3.25
Nc1nc(SCCc2ccccc2)nc2nc3c(c(-c4ccccc4)c12)CCCC3	> 100	> 100	> 100	–	> 100	> 100	> 100	> 100	> 100	> 100	> 100	–	–	–	–
NCCSC(c1ccccc1)c1ccccc1	40.6	37.9	34.2	32.8 µM	30	35.7	> 100	55.6	–	> 100	0.793	–	–	–	–
C(=N\NC1=NCCN1)/c1ccc(-c2cn3cc(/C=N/NC4=NCCN4)ccc3n2)cc1	> 67	> 100	> 100	> 100 µM	> 100	–	38.1	> 59.4	42.5	> 100	19.7	–	–	–	–
O=C(C[n+]1ccc2ccccc2c1)c1ccc2ccc3ccccc3c2c1	17.7	13.1	10.8	15.9 µM	5.64	9.08	16.6	15.3	1.99	32.7	–	–	–	–	–
CC(C)(C)c1cc(C2=NNC(c3ccccc3)C2)cc(C(C)(C)C)c1O (stereo not given)	14.6	34.3	28.5	29.3 µM	27.5	31.5	34.5	27.7	–	38.7	–	–	–	–	–
Clc1cc2c(cc1Cl)CC(NCCN1CCCC1)CC2 (stereo not given)	32	45.7	14.3	34.9 µM	21.3	29.9	29.4	30.3	48.9	27.8	37.6	–	–	–	–
